Laboratory results published in ChEMBL document CHEMBL1914398, “Synthesis and evaluation of novel N-fluoropyridyl derivatives of tropane as potential PET imaging agents for the dopamine transporter” (Bioorg Med Chem Lett, 2011).

What was measured:
[1] = molecular target: Sodium-dependent serotonin transporter (Homo sapiens, UniProt P31645); experiment: Displacement of [125I]-IDAM from SERT transfected in pig LLC-PK1 cells by radioligand competition binding assay; assay type: cell-based
[2] = molecular target: Sodium-dependent noradrenaline transporter (Homo sapiens, UniProt P23975); experiment: Displacement of [125I]-INXT from NET transfected in pig LLC-PK1 cells by radioligand competition binding assay; assay type: cell-based
[3] = molecular target: Sodium-dependent dopamine transporter (Homo sapiens, UniProt Q01959); experiment: Displacement of [125I]-IPT from DAT transfected in pig LLC-PK1 cells by radioligand competition binding assay; assay type: cell-based
[4] = Selectivity ratio of Ki for NET to Ki for DAT
[5] = Selectivity ratio of Ki for SERT to Ki for DAT

Chain of Sodium-dependent serotonin transporter (P31645 whole entry): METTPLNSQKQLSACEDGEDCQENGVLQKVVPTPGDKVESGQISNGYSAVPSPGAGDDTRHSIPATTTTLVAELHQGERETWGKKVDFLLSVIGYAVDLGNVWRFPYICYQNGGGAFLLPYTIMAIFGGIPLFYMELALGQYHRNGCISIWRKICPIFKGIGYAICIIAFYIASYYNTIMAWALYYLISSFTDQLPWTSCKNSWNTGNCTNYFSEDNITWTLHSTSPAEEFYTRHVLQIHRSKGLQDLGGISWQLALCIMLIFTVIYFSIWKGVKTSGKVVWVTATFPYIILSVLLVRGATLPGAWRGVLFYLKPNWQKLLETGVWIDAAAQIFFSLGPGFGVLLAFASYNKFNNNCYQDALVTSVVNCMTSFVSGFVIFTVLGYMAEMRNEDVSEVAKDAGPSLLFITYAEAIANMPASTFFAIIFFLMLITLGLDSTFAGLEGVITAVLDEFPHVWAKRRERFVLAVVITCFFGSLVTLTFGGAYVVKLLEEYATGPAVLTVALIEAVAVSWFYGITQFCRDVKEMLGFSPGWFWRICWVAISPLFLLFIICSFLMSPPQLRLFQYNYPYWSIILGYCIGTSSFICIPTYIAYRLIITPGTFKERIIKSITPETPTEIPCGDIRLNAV
Chain of Sodium-dependent dopamine transporter (Q01959 whole entry): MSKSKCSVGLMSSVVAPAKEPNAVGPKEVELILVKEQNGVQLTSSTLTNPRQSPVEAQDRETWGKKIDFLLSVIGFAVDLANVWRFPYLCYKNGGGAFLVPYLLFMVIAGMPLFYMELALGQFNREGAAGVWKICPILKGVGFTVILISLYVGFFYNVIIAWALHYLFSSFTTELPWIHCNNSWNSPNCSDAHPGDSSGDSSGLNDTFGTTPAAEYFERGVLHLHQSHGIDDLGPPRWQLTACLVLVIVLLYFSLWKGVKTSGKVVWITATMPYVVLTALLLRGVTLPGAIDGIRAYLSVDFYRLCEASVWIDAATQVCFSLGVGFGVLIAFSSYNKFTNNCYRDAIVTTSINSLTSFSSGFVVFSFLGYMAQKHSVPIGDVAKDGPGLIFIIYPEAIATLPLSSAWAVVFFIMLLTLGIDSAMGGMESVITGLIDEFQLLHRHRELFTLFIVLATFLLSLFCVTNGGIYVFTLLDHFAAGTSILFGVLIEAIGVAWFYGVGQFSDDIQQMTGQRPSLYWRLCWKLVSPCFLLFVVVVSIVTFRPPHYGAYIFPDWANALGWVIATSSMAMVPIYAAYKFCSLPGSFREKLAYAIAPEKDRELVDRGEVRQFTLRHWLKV
Chain of Sodium-dependent noradrenaline transporter (P23975 whole entry): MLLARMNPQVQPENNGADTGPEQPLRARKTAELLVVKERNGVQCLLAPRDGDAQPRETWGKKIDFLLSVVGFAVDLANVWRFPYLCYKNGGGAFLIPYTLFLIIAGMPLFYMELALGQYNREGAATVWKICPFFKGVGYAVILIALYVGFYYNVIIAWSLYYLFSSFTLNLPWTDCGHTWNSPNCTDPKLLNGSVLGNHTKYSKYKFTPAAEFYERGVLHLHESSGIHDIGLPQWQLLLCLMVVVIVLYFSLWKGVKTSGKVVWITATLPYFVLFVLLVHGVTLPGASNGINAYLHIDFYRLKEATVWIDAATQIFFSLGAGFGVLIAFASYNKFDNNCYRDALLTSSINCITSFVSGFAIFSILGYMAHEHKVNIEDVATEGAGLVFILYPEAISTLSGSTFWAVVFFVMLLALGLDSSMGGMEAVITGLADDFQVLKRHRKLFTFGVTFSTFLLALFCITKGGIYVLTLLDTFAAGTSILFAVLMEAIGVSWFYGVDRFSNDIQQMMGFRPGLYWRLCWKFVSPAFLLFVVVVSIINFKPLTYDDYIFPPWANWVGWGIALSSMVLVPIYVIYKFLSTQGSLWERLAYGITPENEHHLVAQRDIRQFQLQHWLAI

| Compound | Ki [1] [nM] | Ki [2] [nM] | Ki [3] [nM] | Ratio Ki [4] | Ratio Ki [5] |
| --- | --- | --- | --- | --- | --- |
| COC(=O)[C@H]1[C@@H](c2ccc(F)cc2)C[C@H]2CC[C@H]1N2C | 181 | 635 | – | – | – |
| COC(=O)[C@@H]1C2CCC(C[C@@H]1c1ccc(Br)cc1)N2C (some centres undefined) | – | – | 3.5 | – | – |
| CN1C2CCC1[C@@H](C(=O)Nc1cccc(Br)n1)[C@@H](c1ccc(Cl)cc1)C2 (some centres undefined) | 3210 | 3850 | 86.7 | 44 | 37 |
| CN1C2CCC1[C@@H](CNc1cccc(F)n1)[C@@H](c1ccc(Cl)cc1)C2 (some centres undefined) | 20.6 | 66.2 | 4.1 | 16 | 5 |
| CN1C2CCC1[C@@H](C(=O)Nc1ccnc(Br)c1)[C@@H](c1ccc(Cl)cc1)C2 (some centres undefined) | 10300 | 12100 | 82.2 | 147 | 125 |
| COC(=O)[C@@H]1C2CCC(C[C@@H]1c1ccc(Cl)cc1)N2C (some centres undefined) | – | – | 5.1 | – | – |
